ChEMBL document CHEMBL1147257, “New cytotoxic steroidal alkaloids from the Philippine sponge Corticium niger” (J Nat Prod, 2003)

System: HCT-116
Assay: Cytotoxicity against human HCT116 cells after 72 hrs by MTS/PMS bioreduction assay
Assay type: functional, cell-based
Settings: HCT-116, 72 h

Compound | IC50 [µM]
CC(C)C1CCN(C)C1C[C@@H](C)[C@H]1CC[C@H]2C3=CC[C@H]4[C@H](N)C=CC[C@]4(C)[C@H]3CC[C@]12C (some centres undefined) [PLAKINAMINE J] | 6.1
CN[C@@H]1CC[C@]2(C)[C@H]3CC[C@]4(C)[C@@H]([C@H](C)CC5NCCC5C(C)C)CC[C@H]4C3=CC[C@H]2[C@H]1OC(C)=O (some centres undefined) | 1.4
CN[C@@H]1CC[C@]2(C)[C@H]3CC[C@]4(C)[C@@H]([C@H](C)CC5NCCC5=C(C)C)CC[C@H]4C3=CC[C@H]2[C@H]1OC(C)=O (some centres undefined) [PLAKINAMINE K] | 1.4
CC(C)=C1CCN2[C@@H]1C[C@@H](C)[C@H]1[C@@H]2C[C@H]2C3=CC[C@H]4C[C@H](N(C)C)CC[C@]4(C)[C@H]3CC[C@]12C [PLAKINAMINE I] | 10.6
